One assay has as its system L1210. Description: Antitumor activity against mouse L1210 cells allografted in mouse relative to control. Format: functional, cell-based.
The test system of another assay is P388. Description: Antitumor activity against mouse P388 cells allografted in mouse relative to control. Format: functional.

The source made the active and inactive calls. No cut-off for these calls is given here.

Turning to `CC(=O)N1C(=O)NC(=O)C1(C)c1cccs1` (centres undefined), the result in the assay with L1210 was inactive. The same measure, in the same setting: under `CN1C(=O)NC(C)(c2cccs2)C1=O` (centres undefined) stands “inactive”. In the case of `O=C1N(Cl)C(=O)C(c2ccc(C(F)(F)F)cc2)(c2ccc(C(F)(F)F)cc2)N1Cl`, the result with P388 and with L1210 was inactive.

Turning to `CC(=O)N1C(=O)NC(=O)C1(C)c1ccc(Cl)s1` (centres undefined), the outcome with L1210 was inactive. On the same count and under the same terms, under `CC1(c2cccs2)NC(=O)N(C(=O)CCl)C1=O` (centres undefined) stands “inactive”; under `CC1(c2ccc(Cl)s2)NC(=O)NC1=O` (centres undefined), “inactive”. For `O=C(CCl)N1C(=O)NC(c2ccc(Cl)cc2)(c2ccc(Cl)cc2)C1=O`, the result in the assay on P388 and in the assay with L1210 was inactive.

With `CC(=O)N1C(=O)N(Cl)C(=O)C1(c1ccc(Cl)cc1)c1ccc(Cl)cc1`, the result in the assay with P388 and in the assay on L1210 was inactive.

In the case of `CC(=O)N1C(=O)NC(=O)C1(c1ccc(Cl)cc1)c1ccc(Cl)cc1`, the outcome in the assay on P388 and in the assay on L1210 was inactive. As to `CC(=O)N1C(=O)N(Cl)C(=O)C1(C)c1cccs1` (centres undefined), the result in the assay on L1210 was inactive. For the molecule `CC(=O)N1C(=O)NC(=O)C1(C)c1ccco1` (centres undefined), the result in the assay with L1210 was inactive. Consider `O=C1NC(=O)C(c2ccc(Cl)cc2)(c2ccc(Cl)cc2)N1`, for which the result in the assay on L1210 was inactive. The same measure, in the same setting: the same measure for `CC1(c2ccc(Cl)s2)C(=O)N(Cl)C(=O)N1Cl` (centres undefined): “inactive”; for `CC1(c2ccco2)NC(=O)NC1=O` (centres undefined): “inactive”; for `O=C1NC(=O)C2(CSSC2)N1`: “inactive”. Turning to `O=C1NC(c2cccs2)(c2cccs2)C(=O)N1Cl`, the outcome in the assay with L1210 was inactive.

Regarding `CC1(c2cccs2)NC(=O)N(Cl)C1=O` (centres undefined), in the assay on L1210, the result was inactive.

For `CC1(c2cccs2)C(=O)N(Cl)C(=O)N1Cl` (centres undefined), the outcome in the assay with L1210 was inactive.

As to `CC(=O)N1C(=O)NC(c2ccc(Cl)cc2)(c2ccc(Cl)cc2)C1=O`, the outcome in the assay with P388 and in the assay with L1210 was inactive. Turning to `CC1(c2ccco2)NC(=O)N(Cl)C1=O` (centres undefined), the result in the assay on L1210 was inactive. `O=C1N(Cl)C(=O)C(c2ccc(Cl)cc2)(c2ccc(Cl)cc2)N1Cl` registered a T/C with P388 of 190%. In addition, the result in the assay with L1210 was inactive. Turning to `O=C1NC(=O)C(c2ccc(C(F)(F)F)cc2)(c2ccc(C(F)(F)F)cc2)N1`, the result in the assay on P388 and in the assay with L1210 was inactive. Regarding `CN1C(=O)NC(c2ccc(Cl)cc2)(c2ccc(Cl)cc2)C1=O`, the outcome in the assay with P388 and with L1210 was inactive.

Turning to `CC1(c2cccs2)NC(=O)NC1=O` (centres undefined), the outcome with L1210 was inactive. Still for that read-out and setting: the same measure for `CC1(c2ccco2)NC(=O)N(C(=O)CCl)C1=O` (centres undefined): “inactive”; for `O=C1NC(=O)C(c2cccs2)(c2cccs2)N1`: “inactive”.

In general, T/C refers to the result in the treated group divided by that in the control group, in per cent.
